Experimental data as given in PMC6882446, “Further validation of strecker-type α-aminonitriles as a new class of potent human carbonic anhydrase II inhibitors: hit expansion within the public domain using differential scanning fluorimetry leads to chemotype refinement” (Journal of Enzyme Inhibition and Medicinal Chemistry, 2019).

Target: T1, bCA (Bos taurus, UniProt P00921)
T1 construct: gene CA2; commercial bovine carbonic anhydrase
Experiment: biochemical
Parameters: differential scanning fluorimetry (thermal shift) with SYPRO Orange, bovine carbonic anhydrase
Settings: not given
Experimental: (§1) For 800-compound screening, the test reactions were set up in the following buffer: 10 mM NaH2PO4/Na2HPO4, pH 7.0, 10 mM NaCl. The total volume of the reaction mixture per well was 10 µL. Carbonic anhydrase (Sigma Aldrich Cat# C3934) in 300 µg/mL concentration was pre-mixed with environment-sensitive SYPRO orange dye (Invitrogen, Cat# S6650) at final concentration in the reaction of 10 ×, with regard to the stock concentration stated by the vendor. The mixtures were pre-incubated for 1 h at 4 °C with 20 µM concentrations of the compounds (and 1% final concentration of DMSO), placed into MicroAmp® Optical 384-Well Reaction Plate (ThermoFisher, Cat# 4309849). The reaction mixture was kept at room temperature for 15 min to ensure full protein-compound interactions. The temperature was raised at 1.6 °C/s rate to 40 °C without signal reading. Starting from 40 °C up to 85 °C the heating rate was set to 0.05 °C/s with constant fluorescence reading, using 470/623 nm filter set. The raw data of dye fluorescence intensity change upon melting of the protein were obtained from the instrument ViiA 7 RUO software. Further data processing and visualisation was performed by custom-made Microsoft Excel scripts. The peak of the first derivative for the fluorescence curve was used to define melting temperature Tm. Tm for DMSO control wells, having only protein, dye and 1% DMSO was used as a To to determine melting temperature shifts (ΔTm). All measurements were made in quadruplicates. Thermal shift assay was carried out using ViiA™ 7 Real-Time PCR System equipped with 384-well block (Applied Biosystems, USA). The TSA procedure was adopted from the literature[6–8] and was modified in order to allow measuring the bCA melting temperature on interaction with various compounds, including the known CA inhibitor azetazolamide (AZ)[9], which was used in this study as a reference bCA binder at 10 and 20 µM concentration.

T1 sequence (P00921 2-260): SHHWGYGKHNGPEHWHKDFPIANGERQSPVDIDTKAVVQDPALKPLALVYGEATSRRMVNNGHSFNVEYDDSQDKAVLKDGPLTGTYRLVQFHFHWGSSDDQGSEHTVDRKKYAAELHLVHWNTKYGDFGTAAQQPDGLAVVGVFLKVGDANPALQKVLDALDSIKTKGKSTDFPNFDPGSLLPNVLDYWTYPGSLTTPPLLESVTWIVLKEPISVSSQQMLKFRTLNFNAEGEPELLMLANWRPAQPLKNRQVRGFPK

ΔTm at 20 µM | Structure (SMILES)
1.64 °C | CC(C)C(C#N)N1CCN(C(=O)CSc2ccc(Br)cc2)CC1 (stereo not drawn) [compound 36]
1.64 °C | CC(C)C(C#N)N1CCN(C(=O)C2CCCO2)CC1 (stereo not drawn) [compound 39]
1.37 °C | COc1ccc(C(=O)N2CCN(C(C#N)C(C)C)CC2)cc1OC(F)F (stereo not drawn) [compound 46]
1.19 °C | CC(C)C(C#N)N1CCN(Cc2nccn2CC(F)(F)F)CC1 (stereo not drawn) [compound 47]

Target: T2, hCA II (Homo sapiens, UniProt P00918)
T2 construct: gene CA2; recombinant human CA II, obtained in-house
Experiment: stopped-flow CO2 hydration assay
Format: biochemical
Settings: not given
Text: stopped-flow CO2 hydration assay on hCA II

Ki | Structure (SMILES)
0.97 µM | CC(C)C(C#N)N1CCN(c2ncnc3ccsc23)CC1 (stereo not drawn) [compound 16, Z1251205249]
0.78 µM | CC(C)C(C#N)N1CCN(CC(=O)NCc2ccccn2)CC1 (stereo not drawn) [compound 17, Z1176496598]
0.93 µM | CCNC(=O)CCCC(=O)N1CCN(C(C#N)c2ccccc2)CC1 (stereo not drawn) [compound 18, Z1185260979]
0.91 µM | COc1ccc(C(C#N)N2CCN(C(=O)C3CCCCC3)CC2)cc1 (stereo not drawn) [compound 30, Z146384300]
0.76 µM | CCc1noc(CC)c1CC(=O)N1CCN(C(C#N)C(C)C)CC1 (stereo not drawn) [compound 31, Z1390085782]
0.86 µM | CNS(=O)(=O)CCCN1CCN(C(C#N)c2ccccc2)CC1 (stereo not drawn) [compound 32, Z1395303258]
60.5 µM | Cc1ccccc1CN1CCN(C(=O)CN2CCN(C(C#N)C(C)C)CC2)CC1 (stereo not drawn) [compound 35, Z1171402445]
29.8 µM | CC(C)C(C#N)N1CCN(C(=O)CSc2ccc(Br)cc2)CC1 (stereo not drawn) [compound 36, Z1167646026]
20.4 µM | CC(C)C(C#N)N1CCN(C(=O)C2CCCO2)CC1 (stereo not drawn) [compound 39, Z1167645477]
3.7 µM | COc1ccc(C(=O)N2CCN(C(C#N)C(C)C)CC2)cc1OC(F)F (stereo not drawn) [compound 46, Z1126852482]
38.2 µM | CC(C)C(C#N)N1CCN(Cc2nccn2CC(F)(F)F)CC1 (stereo not drawn) [compound 47, Z1176495724]
0.68 µM | Cn1cc(CN2CCN(C(C#N)c3ccccc3)CC2)c(-c2cccnc2)n1 (stereo not drawn) [compound 50, Z1470771430]

Same assay, conditions: CO2 […]; […] Hepes pH […]; […] Na2SO4; room temperature; […] min pre-incubation

Ki | Structure (SMILES)
> 100 µM | COc1ccc(C(C#N)N2CCN(C(=O)c3ccc(Br)cc3)CC2)cc1 (stereo not drawn) [compound 4, Z118259550]
8.1 µM | N#CC(Nc1ccc(F)cc1)c1ccco1 (stereo not drawn) [compound 5, Z131022682]
> 100 µM | COc1ccc(C(C#N)N2CCN(C(=O)c3ccc4[nH]c5c(c4c3)CC(C)CC5)CC2)cc1 (stereo not drawn) [compound 7, Z118259780]
74.3 µM | N#CC(c1ccccc1)N1CCN(C(=O)C2CCN(S(=O)(=O)c3ccccc3F)CC2)CC1 (stereo not drawn) [compound 8, Z118260178]
> 100 µM | COc1ccc(C(C#N)N2CCN(C(=O)c3ccc(S(=O)(=O)N4CCCCCC4)cc3)CC2)cc1 (stereo not drawn) [compound 9, Z118259626]
53.7 µM | N#CC(c1ccccc1)N1CCN(C(=O)c2ccccc2)CC1 (stereo not drawn) [compound 10, Z146786712]
40.9 µM | N#CC(C1CCCCC1)N1CCN(C(=O)CCc2ccccn2)CC1 (stereo not drawn) [compound 12, Z913897024]
7.4 µM | CC1(C)CN(C(C#N)c2ccc(Cl)cc2)CCO1 (stereo not drawn) [compound 13, Z1097120891]
9.3 µM | CCNC(=O)C1CCCN(C(C#N)c2c(F)cccc2Cl)C1 (stereo not drawn) [compound 14, Z1230758078]
> 100 µM | CC(C)C(C#N)N1CCN(c2ncnc3cc(F)ccc23)CC1 (stereo not drawn) [compound 15, Z1251205230]
9.6 µM | N#CC1CN(C(=O)CCc2ccsc2)CCN1Cc1ccccc1 (stereo not drawn) [compound 19, Z1204316164]
100 µM | Cc1cnc(C(=O)N2CCN(Cc3ccccc3)C(C#N)C2)cn1 (stereo not drawn) [compound 20, Z1204317166]
> 100 µM | N#Cc1nccnc1N1CCN(Cc2ccccc2)C(C#N)C1 (stereo not drawn) [compound 21, Z1205181012]
> 100 µM | CCC(CC)c1cc(C(=O)N2CCN(C(C#N)C(C)C)CC2)on1 (stereo not drawn) [compound 22, Z1261078980]
9.1 µM | CC(C)C(C#N)N1CCN(C(=O)c2scnc2C(C)(C)C)CC1 (stereo not drawn) [compound 23, Z1322755479]
16 µM | N#CC(c1c(F)cccc1Cl)N1CCCC(N2CCNC2=O)C1 (stereo not drawn) [compound 24, Z1298330150]

Ki | Structure (SMILES)
36.1 µM | N#CC(c1c(F)cccc1Cl)N1CCC(N2CCCC2=O)CC1 (stereo not drawn) [compound 25, Z1298979831]
3 µM | CNC(=O)C1CCN(C(C#N)c2c(F)cccc2Cl)CC1 (stereo not drawn) [compound 26, Z1297989190]
> 100 µM | CC(C)C(C#N)N1CCN(C(=O)C/C=C/c2cccc(F)c2)CC1 (stereo not drawn) [compound 27, Z1343956502]
8.9 µM | N#CC(c1ccccc1)N1CCN(CC(=O)NC2CCOCC2)CC1 (stereo not drawn) [compound 28, Z1317906129]
3.7 µM | N#CC(c1ccccc1)N1CCN(Cc2cccnc2)CC1 (stereo not drawn) [compound 29, Z1317905741]
5.3 µM | N#CC(c1ccccc1)N1CCN(CC(=O)NCC2CCC2)CC1 (stereo not drawn) [compound 33, Z1395304494]
5 µM | Cc1ccc(N(CC(=O)N2CCN(C(C#N)C(C)C)CC2)C(C)C)cc1 (stereo not drawn) [compound 34, Z1567293695]
2.3 µM | N#CC(c1ccccc1)N1CCN(CC2CCOC2)CC1 (stereo not drawn) [compound 37, Z1395305944]
5 µM | N#CC(c1ccc(Br)cc1)N1CCN(CCN2C(=O)CNC2=O)CC1 (stereo not drawn) [compound 38, Z1567199718]
41.9 µM | CC(C#N)N1CCN(C(=O)OC(C)(C)C)CC1 (stereo not drawn) [compound 40, Z1124717499]
35.1 µM | Cc1ccc(C(=O)NCC(=O)N2CCN(C(C#N)C(C)C)CC2)cc1 (stereo not drawn) [compound 41, Z1416783341]
> 100 µM | N#CC1COCCN1 (stereo not drawn) [compound 43, Z1198234963]
40.9 µM | CC(C)C(C#N)N1CCN(C(=O)CN2CCOC(c3ccc(F)cc3)C2)CC1 (stereo not drawn) [compound 45, Z1567277098]
5.5 µM | Cc1ccc(C(=O)C2CCN(CC(=O)N3CCN(C(C#N)C(C)C)CC3)CC2)cc1 (stereo not drawn) [compound 48, Z1567280757]
3.5 µM | N#CC(c1ccccc1)N1CCN(CC(=O)NCC(F)(F)F)CC1 (stereo not drawn) [compound 49, Z1317905463]

Target: T1, bCA
Experiment: biochemical
Parameters: Differential scanning fluorimetry (SYPRO Orange) melting temperature shift of bCA, 20 uM compound
Settings: not given
Remark: another data set of the same source
Experimental: as §1, with “Thermal shift assay was carried out using ViiA™ 7 Real-Time PCR System equipped with 384-well block (Applied Biosystems, USA). The TSA procedure was adopted from the literature[6–8] and was modified in order to allow measuring the bCA melting temperature on interaction with various compounds, including the known CA inhibitor azetazolamide (AZ)[9], which was used in this study as a reference bCA binder at 10 and 20 µM concentration. For” for “For”, “quadruplicates.” for “quadruplicates. Thermal shift assay was carried out using ViiA™ 7 Real-Time PCR System equipped with 384-well block (Applied Biosystems, USA). The TSA procedure was adopted from the literature[6–8] and was modified in order to allow measuring the bCA melting temperature on interaction with various compounds, including the known CA inhibitor azetazolamide (AZ)[9], which was used in this study as a reference bCA binder at 10 and 20 µM concentration.”

ΔTm at 20 µM | Structure (SMILES)
1.5 °C | CC(C)C(C#N)N1CCN(c2ncnc3ccsc23)CC1 (stereo not drawn) [compound 16, Z1251205249]
1.14 °C | CC(C)C(C#N)N1CCN(CC(=O)NCc2ccccn2)CC1 (stereo not drawn) [compound 17, Z1176496598]
1.41 °C | CCNC(=O)CCCC(=O)N1CCN(C(C#N)c2ccccc2)CC1 (stereo not drawn) [compound 18, Z1185260979]
1.64 °C | COc1ccc(C(C#N)N2CCN(C(=O)C3CCCCC3)CC2)cc1 (stereo not drawn) [compound 30, Z146384300]
1.55 °C | CCc1noc(CC)c1CC(=O)N1CCN(C(C#N)C(C)C)CC1 (stereo not drawn) [compound 31, Z1390085782]
1.82 °C | Cc1ccccc1CN1CCN(C(=O)CN2CCN(C(C#N)C(C)C)CC2)CC1 (stereo not drawn) [compound 35, Z1171402445]
1.37 °C | Cn1cc(CN2CCN(C(C#N)c3ccccc3)CC2)c(-c2cccnc2)n1 (stereo not drawn) [compound 50, Z1470771430]
